Data from patent US6730693B2, “Double salts of fumaric acid with a carnitine and an amino acid and food supplements, dietary supplements and drugs containing same” (Sigma-Tau Industrie Farmaceutiche Riunite S.p.A., priority 2000, dated 2004).
Structures can show the parent of a compound that is named as a salt.

Legend:
[1] = Weight increase and appearance after exposure to relative humidity (hygroscopicity test); assay type: physicochemical; conditions: for 24 hours; for Weight increase %: exposure to a relative humidity of 60 ±5% at 25%; for Appearance: exposure to a relative humidity of 60 ±5%
[2] = Hygroscopicity of the isolated solid as observed on preparation; assay type: physicochemical; conditions: isolated solid after preparation
Method: The mixture was then filtered under vacuum and the solid thus obtained was dried in a thermostatic oven at 30° C. overnight.
The mixture was then filtered under vacuum and the solid thus obtained dried in a thermostatic oven at 30° C. overnight.
8 g (0.05 moles) of L-carnitine inner salt, 5.8 g (0.05 moles) of fumaric acid and 6.6 g of L-ornithine were dissolved in 7.5 mL of water at 60° C. and the resulting thick, clear mass was slowly poured into a solution of acetone (800 mL) under vigorous mechanical stirring.

Row | Compound | Weight increase % [1] | Appearance [1] | Hygroscopicity of the solid obtained [2]
1 | CN(CC(=O)O)C(=N)N [Anhydrous creatine] | 3% | flowable | –
2 | CC(C)CC(=O)O[C@H](CC(=O)[O-])C[N+](C)(C)C [Isovaleryl L-carnitine inner salt] | 20% | deliquescent | –
3 | C[N+](C)(C)C[C@H](O)CC(=O)[O-].O=C(O)/C=C/C(=O)O [L-carnitine fumarate] | – | – | highly hygroscopic
4 | C[N+](C)(C)C[C@H](O)CC(=O)[O-] [L-carnitine inner salt] | 19% | deliquescent | –
5 | Isovaleryl L-Carnitine and Creatine Fumarate [Ex. 2 (BS/232)] | 0.19% | no variation | non-hygroscopic
6 | L-Carnitine and Creatine Fumarate [Ex. 1 (BS/231)] | 0.18% | no variation | non-hygroscopic
7 | L-carnitine and lysine fumarate | – | – | non-hygroscopic
8 | isovaleryl L-carnitine and lysine fumarate | – | – | non-hygroscopic
